Laboratory results published in patent US11685726B2, “Pharmaceutical compositions of 6-(2-(2H-tetrazol-5-yl)ethyl)-6-fluorodecahydroisoquinoline-3-carboxylic acid and ester derivatives thereof” (Sea Pharmaceuticals LLC, priority 2020, dated 2023).

System: 6 Hz psychomotor seizure model in mice
Experiment: 6 Hz psychomotor seizure model in mice
Assay type: in vivo, mouse
Conditions: 0.5 hours, SPHA
From the text: Adult male Carworth Farms (CF-1) mice (25-35 g) or young male Sprague-Dawley (SD) rats (100-150 g) were obtained from Charles River Laboratories Inc (Wilmington Mass. USA). CF1 mice were typically used for the 6 Hz psychomotor seizure model (6 Hz model described in the section below) but could also be used for the Maximal electroshock seizure (MES) model if performed in mice (Maximal electroshock seizure model described in the section below). SD rats were typically used for MES model but could also be used for 6 Hz psychomotor model if performed in rats. Animals were allowed free access to food and water, except during testing periods. After delivery from supplier lab to the in vivo pharmacology testing lab, animals were allowed sufficient time to acclimate to housing conditions prior to testing. Animals were housed in plastic cages in rooms with controlled humidity, ventilation, and lighting (12 hours lights on and 12 hours darkness). The animals were housed and fed in a manner consistent with the recommendations in the “Guide for Care and Use of Laboratory Animals” (National Research Council), and in accordance with guidelines set by an Institutional Animal Care and Use Committee (IACUC). Animal experiments were conducted in a manner consistent with Animal Research: Reporting of In Vivo Experiments (ARRIVE) guidelines (UK) and were approved by an IACUC. Test compounds or respective vehicle (placebo) were administered using an optimal fluid volume-to-body fluid ratio. Solutions or suspensions of test compounds, reference compounds or vehicles were administered to mice or rats in a volume of 0.01 mL/g body weight (mice) or 0.004 mL/g body weight (rats) by subcutaneous (s.c.) injection, intraperitoneal (i.p.) injection or by oral gavage (p.o.) unless otherwise indicated. Reference drug Levetiracetam or vehicle was administered by intraperitoneal (i.p.) injection.
Mice are given a topical anesthetic on the cornea of each eye prior to placement of corneal electrodes. 6 Hz psychomotor seizures were induced in mice (usually 8 animals per group) using electrical stimulation via corneal electrodes (6 Hz, 0.2 millisecond rectangular pulse, 3 second duration at 22 mA using a Grass 48 stimulator instrument as described in Barton M E et al 2001. Epilepsy Res 47:217-227). Prior to placement of corneal electrodes for electrical stimulation 0.5% tetracaine in saline (Sigma) drops were applied to each eye. Seizures and behaviors that arise from the electrical stimulus in the 6 Hz model include a minor clonic seizure phase followed by stereotyped automatistic behaviors including stun, forelimb clonus, twitching of the vibrissae and Straub-tail. […] Animals not presenting any of these behaviors were considered “protected” from seizures. This serves as a screen for in vivo pharmacological activity of test articles or reference anti-epilepsy drugs and defines anti-seizure activity as shown in several publications [Barton M E et al. 2001. Epilepsy Res. 47:217-227; Barton M E et al. 2003 Epilepsy Res. 56:17-26; Brown W C et al. 1953. J Pharmacol Exp Ther 107:273-283. Metcalf C S et al. 2017a. Epilepsia 58:484-493.; Metcalf C S et al. 2017c. Epilepsia 58:239-246.
Unless otherwise indicated pretreatment times of mice or rats were typically 0.5 hours for respective vehicle, Compounds 1, 3, 4, 6 or other compounds administered by subcutaneous or intraperitoneal route (unless other times indicated). A pretreatment time of 1 hour was used for Compounds 3, 4, 6 or other compounds administered by oral route unless other times indicated. Test compounds or respective vehicles were tested in some cases at other pretreatment times as indicated. A median effective dose (ED50) and 95% confidence interval (CI) were calculated using a Prism (Graphpad software). […]

Structure (SMILES): O=C(O)[C@@H]1C[C@H]2C[C@@](F)(CCc3nnn[nH]3)CC[C@H]2CN1 [Compound 1, (3S,4aS,6S,8aR)-6-fluoro-6-[2-(1H-1,2,3,4-tetrazol-5-yl)ethyl]-decahydroisoquinoline-3-carboxylic acid]
- 6 Hz Test Results (# mice protected from seizure/# mice tested) (0.3 mg/kg s.c.): 1/8
- 6 Hz Test Results (# mice protected from seizure/# mice tested) (0.6 mg/kg s.c.): 3/8
- 6 Hz Test Results (# mice protected from seizure/# mice tested) (1 mg/kg s.c.): 3/8
- 6 Hz Test Results (# mice protected from seizure/# mice tested) (3 mg/kg s.c.): 5/8
- 6 Hz Test Results (# mice protected from seizure/# mice tested) (6 mg/kg s.c.): 7/8
- 6 Hz Test Results (# mice protected from seizure/# mice tested) (10 mg/kg s.c.): 8/8
